Source: patent US20120108557A1, “FLUOROQUINOLONE DERIVATIVES FOR OPHTHALMIC APPLICATIONS” (ALCON RESEARCH, LTD., priority 2008, published 2012)

Experiments:
[1] = in vitro
Description: The procedure used is summarized below.
Female New Zealand Albino rabbits were sacrificed by first anaesthetizing with ketamine (30 mg/Kg) and xylazine (6 mg/Kg) followed by an injection of an overdose of […]* (sodium pentobarbital, 1 ml of a 26% solution) into the marginal ear vein. The intact eyes, along with the lids and conjunctival sacs were then enucleated and immediately stored in about 70 ml of fresh BSS PLUS® irrigation solution saturated with O2/CO2 (95:5).
To accomplish this, the exposed cornea of the enucleated eye was carefully placed on a corneal holder, which maintained the cornea curvature and held the eye in place. Various tissues of the eye were dissected leaving the cornea, a small ring of scleral tissue, and the palpebral conjunctiva. The conjunctival and scleral tissue served as a gasket and permitted the cornea to be suspended within the corneal ring in the center of the perfusion chamber. The chamber was jacketed to maintain the cornea and the perfusion solution at 35° C. The corneal holder and chamber were made from acrylic plastic at the University of Iowa, Iowa City, Iowa.
The mounted cornea was clamped between the two cylindrical compartments of the perfusion chamber and 7.5 mls of BSS PLUS® irrigating solution was placed in the receiving (endothelial) side of the chamber with stirring and bubbling of the O2/CO2 (95:5) mixture. Then, 7 mls of the fluoroquinolone dissolved in BSS PLUS® irrigating solution at a concentration of 100 μMole (this is approximately 4 mg/100 mL) was added to the donor (epithelial) side of the chamber also with stirring and bubbling of the O2/CO2 (95:5) mixture. The difference in volume ensured that the cornea would not buckle during the course of the experiment.
Samples (150 μL) were withdrawn from the receiving chamber every 30 minutes over a five hour period, and an equal volume of irrigating solution was immediately added to the receiving chamber to maintain a constant volume. The concentration of fluoroquinolones in the samples was determined using reverse-phase HPLC. […] Mixtures of acetonitrile and 31 mM phosphoric acid/sodium phosphate buffer at pH=3 were the mobile phase. The mobile phase (acetonitrile:phosphate buffer v/v) and UV detection wavelengths for each of the fluoroquinolones was determined beforehand. […] After each permeability experiment, the cornea was trimmed of excess scleral tissue and conjunctiva, weighed and dried overnight over phosphorus pentoxide in a vacuum desiccator. It was then reweighed in order to determine the hydration level. […] If the cornea is damaged in any way the hydration level rises. Data from corneas with hydration levels over 83% are discarded.
The rate of drug accumulation in the receiving (endothelial) chamber, and the apparent Permeability Coefficients (Papp) of the fluoroquinolones were then calculated as follows: […]

[2] = tested on: Staphylococcus epidermidis; assay: In vitro antimicrobial activity, agar dilution MIC; format: cell-based
Description: (§1) The activity of the compounds of the present invention was evaluated using an in vitro assay. Microorganisms were prepared from growth on agar media, in broth culture, or from thawed cryopreserved cultures. Fungal cultures were filtered to remove mycelial elements.
(§2) Using Mueller Hinton II Broth, 0.9% saline or other appropriate media, a suspension of each culture was prepared and adjusted to a turbidity equivalent to that of a 0.5 McFarland Standard. (Cultures adjusted to the 0.5 McFarland Standard generally contain approximately 1.0×10^8 CFU/mL). The adjusted suspension for each culture was diluted 1:10 in the appropriate media so that the inoculum concentration approximates 1.0×10^7 CFU/mL.
(§3) The antimicrobial agent to be tested was weighed and diluted with a volume of sterile distilled water calculated to yield the necessary starting concentration. Serial 1:2 dilutions of the antimicrobial agent in sterile distilled water were prepared (approximately 10-12 test concentrations comprise a reasonable experimental range). A known amount of each antimicrobial dilution was combined with an aliquot of agar medium calculated to yield the desired final antimicrobial test concentration and dispensed onto plates.
(§4) The amount of antimicrobial agent to be weighed was determined using the following equation: […]
(§5) Antimicrobial stock solutions were prepared at concentrations 5-10 times the highest concentration to be tested (routinely 1024 μg/mL). […] The stock solution was diluted to appropriate concentration using sterile water to form a working solution. The working solution was diluted two-fold, in sterile water, until the desired concentration is obtained.
(§6) Mueller Hinton II agar was prepared as described by the manufacturer. Mueller Hinton II agar may be supplemented with 5% defibrinated sheep blood for testing streptococci. Agar was added to the serially diluted antimicrobial solution in each container. The solutions were mixed thoroughly and poured into petri dishes (about 25 mL/plate). The pH of the agar at 25° C. should be between 7.2 and 7.4.
(§7) At least one inocula control plate was inoculated (agar medium without antimicrobial agent) from each seed plate before inoculating test plates. Test plates were inoculated starting at the lowest concentration and proceeding to the highest concentration. After all test plates were inoculated, an additional control plate (agar medium without antimicrobial agent) was inoculated. The plates were incubated in a non-CO2 incubator (or CO2 incubator depending on growth requirements); 18-24 hours at 32-35° C. was sufficient for most organisms.
(§8) All inoculation points on the agar surface were examined for the presence of growth as compared to the inoculum control plates. The results were summarized and use to determine Minimal Inhibitory Concentrations (MICs): The MIC is the lowest concentration of the antimicrobial agent which prevents visible growth of the organism (negative score).

[3] = tested on: Serratia marcescens; assay: In vitro antimicrobial activity, agar dilution MIC; format: cell-based
Description: as §1, §2, §3, §4, §5, §6, §7, §8

[4] = tested on: Streptococcus mitis; assay: In vitro antimicrobial activity, agar dilution MIC; format: cell-based
Description: as §1, §2, §3, §4, §5, §6, §7, §8

[5] = tested on: Streptococcus pneumoniae; assay: In vitro antimicrobial activity, agar dilution MIC; format: cell-based
Description: as §1, §2, §3, §4, §5, §6, §7, §8

[6] = tested on: Acinetobacter junii; assay: In vitro antimicrobial activity, agar dilution MIC; format: cell-based
Description: as §1, §2, §3, §4, §5, §6, §7, §8

[7] = tested on: Enterobacter hormaechei; assay: In vitro antimicrobial activity, agar dilution MIC; format: cell-based
Description: as §1, §2, §3, §4, §5, §6, §7, §8

[8] = tested on: Acinetobacter baumannii; assay: In vitro antimicrobial activity, agar dilution MIC; format: cell-based; conditions: test organism 26, Acinetobacter baumannii
Description: as §1, §2, §3, §4, §5, §6, §7, §8

[9] = tested on: Enterococcus faecalis; assay: In vitro antimicrobial activity, agar dilution MIC; format: cell-based
Description: as §1, §2, §3, §4, §5, §6, §7, §8

[10] = tested on: Escherichia coli; assay: In vitro antimicrobial activity, agar dilution MIC; format: cell-based
Description: as §1, §2, §3, §4, §5, §6, §7, §8

[11] = tested on: Corynebacterium amycolatum; assay: In vitro antimicrobial activity, agar dilution MIC; format: cell-based
Description: as §1, §2, §3, §4, §5, §6, §7, §8

[12] = tested on: Pseudomonas aeruginosa; assay: In vitro antimicrobial activity, agar dilution MIC; format: cell-based
Description: as §1, §2, §3, §4, §5, §6, §7, §8

Structure (SMILES): CN1CCCC2CN(c3cc4c(cc3F)c(=O)c(C(=O)O)cn4C3CC3)CC21 (centres unmarked) [Compound 2]
- permeability and lag characteristics among the compounds studied (in words) [1]: best permeability and lag characteristics of the compounds studied
- Papp at 5 h, 100 μMole ([1]; female, New Zealand Albino, rabbit): 20.5 ×10⁻⁶ cm/s
- MEAN LAG TIME ([1]; female, New Zealand Albino, rabbit, 100 μMole): 27 min
- Minimal Inhibitory Concentration (MIC) ([2]; test organism 7, Staphylococcus epidermidis): 2
- Minimal Inhibitory Concentration (MIC) ([2]; test organism 8, Staphylococcus epidermidis): >2
- Minimal Inhibitory Concentration (MIC) ([3]; test organism 39, Serratia marcescens): 4
- Minimal Inhibitory Concentration (MIC) ([3]; test organism 40, Serratia marcescens): 4
- Minimal Inhibitory Concentration (MIC) ([4]; test organism 21, Streptococcus mitis): ≦0.25
- Minimal Inhibitory Concentration (MIC) ([4]; test organism 22, Streptococcus mitis): 0.5
- Minimal Inhibitory Concentration (MIC) ([4]; test organism 23, Streptococcus mitis): >4
- Minimal Inhibitory Concentration (MIC) ([5]; test organism 19, Streptococcus pneumoniae): 0.5
- Minimal Inhibitory Concentration (MIC) ([5]; test organism 20, Streptococcus pneumoniae): ≦0.25
- Minimal Inhibitory Concentration (MIC) ([6]; test organism 27, Acinetobacter junii): ≦0.25
- Minimal Inhibitory Concentration (MIC) ([6]; test organism 28, Acinetobacter junii): 0.25
- Minimal Inhibitory Concentration (MIC) ([6]; test organism 29, Acinetobacter junii): >4
- Minimal Inhibitory Concentration (MIC) ([7]; test organism 30, Enterobacter hormaechei): 0.25
- Minimal Inhibitory Concentration (MIC) ([7]; test organism 31, Enterobacter hormaechei): >4
- Minimal Inhibitory Concentration (MIC) [8]: ≦0.25
- Minimal Inhibitory Concentration (MIC) ([9]; test organism 15, Enterococcus faecalis): 1
- Minimal Inhibitory Concentration (MIC) ([9]; test organism 16, Enterococcus faecalis): ≦0.25
- Minimal Inhibitory Concentration (MIC) ([9]; test organism 17, Enterococcus faecalis): >4
- Minimal Inhibitory Concentration (MIC) ([9]; test organism 18, Enterococcus faecalis): >2
- Minimal Inhibitory Concentration (MIC) ([10]; test organism 32, Escherichia coli): 0.25
- Minimal Inhibitory Concentration (MIC) ([10]; test organism 33, Escherichia coli): ≦0.25
- Minimal Inhibitory Concentration (MIC) ([10]; test organism 34, Escherichia coli): >4
- Minimal Inhibitory Concentration (MIC) ([11]; test organism 24, Corynebacterium amycolatum): ≦0.03
- Minimal Inhibitory Concentration (MIC) ([11]; test organism 25, Corynebacterium amycolatum): >4
- Minimal Inhibitory Concentration (MIC) ([12]; test organism 37, Pseudomonas aeruginosa): >4
- Minimal Inhibitory Concentration (MIC) ([12]; test organism 38, Pseudomonas aeruginosa): >4
